Test results taken from patent publication US20250163057A1, “DCN-1 MODULATING COMPOUNDS AND METHODS OF USE THEREOF” (Cellarity, Inc., priority 2023, published 2025).
Like-named read-outs stand apart in the source and are kept apart here.

Tests used:
DCN1 protein = DCN1 protein (Homo sapiens (Human), UniProt Q96GG9); assay: Intact Protein MS Analysis with the RapidFire-TOF System (covalent adduct formation); format: binding; details: MS Emax; 400 nM DCN1, 3 hours at room temperature
Outline: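 Tag-cleaved human DCN1 (400 nM) expressed in E. coli, in 25 mM Tris-HCl, 200 mM NaCl, 1 mM DTT, was incubated with 11 compound concentrations for 3 h at room temperature and quenched with 0.2% formic acid. Intact-protein Q-TOF MS with deconvolution detected the compound adduct mass.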

[1] = tested on: Cullin-3 (CUL3) neddylation; assay: AlphaLISA assay for Cullin-3 (CUL3) neddylation in TF 1 cells; format: cell-based; details: Homo sapiens, TF-1, 3 h, 3 hours treatment
Outline: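 Neddylated CUL3 was quantified by AlphaLISA in lysates of TF 1 cells exposed for 3 h to test compound in IMDM without supplements. Percent inhibition set between vehicle and 1 μM DI-1548 positive control; IC50 derived by Hill-equation fitting of dose-response curves.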

[2] = target: DCN1 (DCUND1) protein PONY domain (Homo sapiens (Human), UniProt Q96GG9); assay: TR-FRET assay, DCN1 binding with FAM-labeled probe
Outline: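 Tb-DCN1 PONY domain (E. coli, biotin/streptavidin-Tb); FAM-labelled non-covalent inhibitor probe; TritonX buffer, 200 mM NaCl; 5 nM DCN1 + 20 nM probe or 0.31 nM DCN1 + 900 nM total probe; 0.1% DMSO; TR-FRET read 1, 5, 24 hrs.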

[3] = tested on: fetal hemoglobin gene HBG1; assay: HBG1 Nanostring Assay in CD34+ HSPC erythroid differentiation culture; format: cell-based, human; details: for EC50: Homo sapiens, 240 h, HBG1 induction, Day10 of erythroid differentiation; for Nanostring Ymax obs (%): relative to a control compound (C1)
Outline: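 HBG1 counts came from direct nCounter hybridization (67° C, 22 h) of day-10 lysates, normalized to ERCC positive controls and a housekeeping gene, giving EC50 and Ymax versus a reference compound. Compounds in 0.1% DMSO were present from day −2 while cells underwent EPO/SCF/IL-3 erythroid differentiation, with IL-3 dropped at day 7, at 37° C.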

[4] = 24 hr after treatment with compound, read-out: TR FRET IC50 24 hr
[5] = read-out: TR FRET IC50 1 hr, 1 hr after treatment with compound
[6] = TR FRET IC50 1 hr (nM), 1 hr after treatment with compound

Sequence of DCN1 (DCUND1) protein PONY domain (Q96GG9 60-248): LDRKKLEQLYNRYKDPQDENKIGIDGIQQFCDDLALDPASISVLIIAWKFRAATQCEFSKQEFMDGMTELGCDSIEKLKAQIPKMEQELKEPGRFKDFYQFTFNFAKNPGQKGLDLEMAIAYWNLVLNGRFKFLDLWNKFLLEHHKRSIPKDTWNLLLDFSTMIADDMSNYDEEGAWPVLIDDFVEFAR
Sequence of DCN1 protein (Q96GG9 whole entry): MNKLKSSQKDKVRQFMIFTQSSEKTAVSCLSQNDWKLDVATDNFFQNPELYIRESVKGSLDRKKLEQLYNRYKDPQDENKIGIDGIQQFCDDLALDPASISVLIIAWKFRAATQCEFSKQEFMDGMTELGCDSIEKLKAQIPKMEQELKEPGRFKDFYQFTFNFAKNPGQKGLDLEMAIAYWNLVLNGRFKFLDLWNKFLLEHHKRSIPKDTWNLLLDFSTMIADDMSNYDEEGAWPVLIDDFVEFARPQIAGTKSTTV

SMILES	% Adduct Formation (DCN1 protein)	IC50 [1] [nM]	IC50 [2, 4] [nM]	IC50 [2, 5] [nM]	EC50 [3] [nM]	Nanostring Ymax obs (%) [3]	IC50 [2, 6] [nM]
C=C(CN1CCC(F)(F)C1)C(=O)NCc1nn(-c2ccccc2)c2c1[C@H](c1ccc(F)cc1)[C@@H](NC(=O)c1cccc(C(F)(F)F)c1)C(=O)N2CC (racemic) [Compound I-32]	+ (MS Emax % adduct formation greater than or equal to 0.0 and less than or equal to 30.0)	≤ 100	≤ 200	≤ 200	100 to 1000	++ (Nanostring Ymax greater than 50.0 and less than or equal to 100.0)	
C=C(C(=O)OCC)c1nn(-c2ccccc2)c2c1[C@H](c1ccc(F)cc1)[C@H](NC(=O)c1cccc(C(F)(F)F)c1)C(=O)N2CC (racemic) [Compound I-35, rac-ethyl 2-((4R,5R)-7-ethyl-4-(4-fluorophenyl)-6-oxo-1-phenyl-5-(3-(trifluoromethyl)benzamido)-4,5,6,7-tetrahydro-1H-pyrazolo[3,4-b]pyridine-3-yl)acrylate]	+ (MS Emax % adduct formation greater than or equal to 0.0 and less than or equal to 30.0)	100 to 1000	≤ 200		100 to 1000	+ (Nanostring Ymax greater than or equal to 0.0 and less than or equal to 50.0)	> 3000
CCN1C(=O)[C@@H](NC(=O)c2cccc(C(F)(F)F)c2)[C@@H](c2ccc(F)cc2)c2c(CNC(=O)C3(C#N)CC3)nn(-c3ccccc3)c21 (racemic) [Compound I-37, rac-N-((4R,5R)-3-((1-cyanocyclopropane-1-carboxamido)methyl)-7-ethyl-4-(4-fluorophenyl)-6-oxo-1-phenyl-4,5,6,7-tetrahydro-1H-pyrazolo[3,4-b]pyridine-5-yl)-3-(trifluoromethyl)benzamide]	+ (MS Emax % adduct formation greater than or equal to 0.0 and less than or equal to 30.0)	100 to 1000	1000 to 3000		> 1000	+ (Nanostring Ymax greater than or equal to 0.0 and less than or equal to 50.0)	1000 to 3000
CC#CC(=O)Nc1nn(-c2ccccc2)c2c1[C@H](c1ccc(F)cc1)[C@H](NC(=O)c1cccc(C(F)(F)F)c1)C(=O)N2CC (racemic) [Compound I-51]	+ (MS Emax % adduct formation greater than or equal to 0.0 and less than or equal to 30.0)	100 to 1000	200 to 1000		100 to 1000	+++ (Nanostring Ymax greater than 100.0)	200 to 1000
C=C(C(=O)O)c1nn(-c2ccccc2)c2c1[C@H](c1ccc(F)cc1)[C@H](NC(=O)c1cccc(C(F)(F)F)c1)C(=O)N2CC (racemic) [Compound I-53, rac-2-((4R,5R)-7-ethyl-4-(4-fluorophenyl)-6-oxo-1-phenyl-5-(3-(trifluoromethyl)benzamido)-4,5,6,7-tetrahydro-1H-pyrazolo[3,4-b]pyridine-3-yl)acrylic acid]	++ (MS Emax % adduct formation greater than 30.0 and less than or equal to 80.0)	100 to 1000	200 to 1000		> 1000	+++ (Nanostring Ymax greater than 100.0)	1000 to 3000
C=C(CN1CCOCC1)C(=O)NCc1nn(-c2ccccc2)c2c1[C@@H](c1ccc(F)cc1)[C@H](NC(=O)c1cccc(C(F)(F)F)c1)C(=O)N2CC (racemic) [Compound I-58]	+ (MS Emax % adduct formation greater than or equal to 0.0 and less than or equal to 30.0)	≤ 100	≤ 200	≤ 200	> 1000	+ (Nanostring Ymax greater than or equal to 0.0 and less than or equal to 50.0)	
C/C=C/C(=O)Nc1nn(-c2ccccc2)c2c1[C@H](c1ccc(F)cc1)[C@H](NC(=O)c1cccc(C(F)(F)F)c1)C(=O)N2CC (racemic) [Compound I-62]	+ (MS Emax % adduct formation greater than or equal to 0.0 and less than or equal to 30.0)	100 to 1000	200 to 1000	≤ 200	> 1000	+ (Nanostring Ymax greater than or equal to 0.0 and less than or equal to 50.0)	
